Consider nine compounds from patent US20250188092A1, “RIFAMYCIN ANALOGS” (THE REGENTS OF THE UNIVERSITY OF MICHIGAN, priority 2021, published 2025).

One data set deals with MTB H37Rv ATCC 27294. The data set can be described thus: MIC, microplate Alamar Blue assay (MABA). Type of data set: cell-based, Mycobacterium tuberculosis. As to conditions: for MIC90 / MIC: Mycobacterium tuberculosis, MTB H37Rv ATCC 27294, microplate Alamar Blue assay, lowest concentration giving ≥90% reduction in fluorescence; for MIC: read-out: MIC90 MABA.
In the next data set the test system is DPX2 cells. As to conditions: for DPX2 Viability @ 6.25 μM: 24 h; for DPX2 Viability @ 25 μM: human.
For a further data set, the system named is VERO cells (ATCC CRL-81). The data set can be described thus: Vero cell toxicity. Format: cell-based. As to conditions: Chlorocebus sabaeus, Vero; 72 hours exposure. Here is the method: Cytotoxicity for a mammalian cell line was determined by exposing VERO cells (ATCC CRL-81) to serial dilutions of test compounds for 72 hours, followed by addition of resazurin and measurement of fluorescence after 4 hours incubation (Choules, et al., Antimnicrob. Agents Chemother. 2019, 63, e02204-02218).

Values after ≈ are worked out from the molar mass of the structure shown.

By MIC90 is commonly meant the lowest concentration that inhibits either 90% of growth or 90% of the strains tested, depending on the study. A low value points to greater potency. By IC50 is commonly meant the concentration at which inhibition is half-maximal. Turning to `CO[C@H]1/C=C/O[C@@]2(C)Oc3c(C)c(O)c4c(=O)c(c5oc6cc(N7CCC(C(=O)O)CC7)cc(OCc7ccc(CN8CCN(C)CC8)cc7)c6nc-5c4c3C2=O)NC(=O)/C(C)=C\C=C\[C@H](C)[C@H](O)[C@@H](C)[C@@H](O)[C@@H](C)[C@H](OC(C)=O)[C@@H]1C` [Compound 17q, 1-[(7S,9E,11S,12R,13S,14R,15R,16R,17S,18S,19E,21Z)-13-(acetyloxy)-2,15,17-trihydroxy-11-methoxy-3,7,12,14,16,18,22-heptamethyl-32-({4-[(4-methylpiperazin-1-yl)methyl]phenyl}methoxy)-6,23,37-trioxo-8,27,38-trioxa-24,34-diazahexacyclo-[23.11.1.1^4,7.0^5,36.0^26,35.0^28,33]-octatriaconta-1,3,5(36)9,19,21,25,28,30,32,34-undecaen-30-yl]piperidine-4-carboxylic acid], in the data set on MTB H37Rv ATCC 27294, the “MIC90 MABA Rel to RMP” value was 16 and the MIC90 is 0.415 µM (≈ 0.469 µg/mL). In the data set with DPX2 cells, the “DPX2 Viability @ 6.25 μM” value is recorded as 100% and the “DPX2 Viability @ 25 μM” value was 98%. In the data set on VERO cells (ATCC CRL-81), this compound came in with a half-maximal inhibitory concentration (IC50) greater than 10 µM.
As for `CO[C@H]1/C=C/O[C@@]2(C)Oc3c(C)c(O)c4c(=O)c(c5oc6cc(N7CCS(=O)(=O)CC7)cc(OCc7ccc(CN8CCOCC8)cc7)c6nc-5c4c3C2=O)NC(=O)/C(C)=C\C=C\[C@H](C)[C@H](O)[C@@H](C)[C@@H](O)[C@@H](C)[C@H](OC(C)=O)[C@@H]1C` [Compound 17j, (7S,9E,11S,12R,13S,14R,15R,16R,17S,18S,19E,21Z)-30-(1,1-dioxothiomorpholin-4-yl)-2,15,17-trihydroxy-11-methoxy-3,7,12,14,16,18,22-heptamethyl-32-([4-(morpholin-4-ylmethyl)phenyl]methoxy)-6,23,37-trioxo-8,27,38-trioxa-24,34-diazahexacyclo-[23.11.1.1^4,7.0^5,36.0^26,35.0^28,33]octatriaconta-1,3,5(36)9,19,21,25,28,30,32,34-undecaen-13-yl acetate], the MIC in the data set on MTB H37Rv ATCC 27294 is greater than 0.01 µM. Besides, in the data set with DPX2 cells, the “DPX2 Viability @ 6.25 μM” value came out at 2% and the “DPX2 Viability @ 25 μM” value came to 126%. For the same compound, in the data set on VERO cells (ATCC CRL-81), the IC50 was greater than 10 µM.
For `CO[C@H]1/C=C/O[C@@]2(C)Oc3c(C)c(O)c4c(=O)c(c5oc6cc(N7CCN(C(=O)c8ccc9occc9c8)CC7)cc(OCc7ccc(CN8CCOCC8)cc7)c6nc-5c4c3C2=O)NC(=O)/C(C)=C\C=C\[C@H](C)[C@H](O)[C@@H](C)[C@@H](O)[C@@H](C)[C@H](OC(C)=O)[C@@H]1C` [Compound 17s, (7S,9E,11S,12R,13S,14R,15R,16R,17S,18S,19E,21Z)-30-{4-[(1-benzofuran-5-yl)carbonyl]piperazin-1-yl}-2,15,17-trihydroxy-11-methoxy-3,7,12,14,16,18,22-heptamethyl-32-{[4-(morpholin-4-ylmethyl)phenyl]methoxy}-6,23,37-trioxo-8,27,38-trioxa-24,34-diazahexacyclo[23.11.1.1^4,7.0^5,36.0^26,35.0^28,33]octatriaconta-1,3,5(36)9,19,21,25,28,30,32,34-undecaen-13-yl acetate], in the data set with MTB H37Rv ATCC 27294, the “MIC90 MABA Rel to RMP” value is reported as 0.36 and the MIC90 came to 0.018 µM. Also, in the data set with DPX2 cells, the “DPX2 Viability @ 6.25 μM” value is on record as 102% and the “DPX2 Viability @ 25 μM” value worked out at 86%. Moreover, the IC50 in the data set on VERO cells (ATCC CRL-81) was greater than 10 µM.
Regarding `CO[C@H]1/C=C/O[C@@]2(C)Oc3c(C)c(O)c4c(=O)c(c5oc6cccc(OCc7ccc(CN8CCOCC8)cc7)c6nc-5c4c3C2=O)NC(=O)/C(C)=C\C=C\[C@H](C)[C@H](O)[C@@H](C)[C@@H](O)[C@@H](C)[C@H](OC(C)=O)[C@@H]1C` [Compound 16d, (7S,9E,11S,12R,13S,14R,15R,16R,17S,18S,19E,21Z)-2,15,17-Trihydroxy-11-methoxy-3,7,12,14,16,18,22-heptamethyl-32-({4-[(morpholin-4-yl)methyl]phenyl}methoxy)-6,23,37-trioxo-8,27,38-trioxa-24,34-diazahexacyclo[23.11.1.1^4,7.0^5,36.0^26,35.0^28,33]octatriaconta-1(36)2,4,9,19,21,25,28,30,32,34-undecaen-13-yl acetate], in the data set on MTB H37Rv ATCC 27294, the “MIC90 MABA Rel to RMP” value is given as 0.07 and the MIC90 is 0.0037 µM. In addition, in the data set on DPX2 cells, the “DPX2 Viability @ 6.25 μM” value came to 79% and the “DPX2 Viability @ 25 μM” value was determined as 59%. Further, in the data set on VERO cells (ATCC CRL-81), the IC50 is greater than 10 µM.
The matching figures for `CO[C@H]1/C=C/O[C@@]2(C)Oc3c(C)c(O)c4c(=O)c(c5oc6cc(N7CCC(CC(=O)O)CC7)cc(C)c6nc-5c4c3C2=O)NC(=O)/C(C)=C\C=C\[C@H](C)[C@H](O)[C@@H](C)[C@@H](O)[C@@H](C)[C@H](OC(C)=O)[C@@H]1C` [Compound 29g, 2-{4-[(7S,9E,11S,12R,13S,14R,15R,16R,17S,18S,19E,21Z)-13-(acetyloxy)-2,15,17-trihydroxy-11-methoxy-3,7,12,14,16,18,22,32-octamethyl-6,23,37-trioxo-8,27,38-trioxa-24,34-diazahexacyclo[23.11.1.1^4,7.0^5,36.0^26,35.0^28,33]octatriaconta-1,3,5(36)9,19,21,25,28,30,32,34-undecaen-30-yl]piperidin-4-yl}acetic acid]: 1.9, 0.051 µM (≈ 0.0479 µg/mL), 100%, 101% and greater than 10 µM.
The matching figures for `CO[C@H]1/C=C/O[C@@]2(C)Oc3c(C)c(O)c4c(=O)c(c5oc6cc(C)cc(N7CCN(C(=O)c8cccc(-n9ccnc9)c8)CC7)c6nc-5c4c3C2=O)NC(=O)/C(C)=C\C=C\[C@H](C)[C@H](O)[C@@H](C)[C@@H](O)[C@@H](C)[C@H](OC(C)=O)[C@@H]1C` [Compound 30f, (7S,9E,11S,12R,13S,14R,15R,16R,17S,18S,19E,21Z)-2,15,17-Trihydroxy-32-{4-[3-(1H-imidazol-1-yl)benzoyl]piperazin-1-yl}-11-methoxy-3,7,12,14,16,18,22,30-octamethyl-6,23,37-trioxo-8,27,38-trioxa-24,34-diazahexacyclo[23.11.1.1^4,7.0^5,36.0^26,35.0^28,33]octatriaconta-1(36)2,4,9,19,21,25,28,30,32,34-undecaen-13-yl acetate]: 1.63, 0.044 µM, 98%, 64% and greater than 10 µM.
In the case of `CO[C@H]1/C=C/O[C@@]2(C)Oc3c(C)c(O)c4c(=O)c(c5oc6cc(N7CCC(C(=O)O)CC7)cc(OCc7ccc(CN8CCOCC8)cc7)c6nc-5c4c3C2=O)NC(=O)/C(C)=C\C=C\[C@H](C)[C@H](O)[C@@H](C)[C@@H](O)[C@@H](C)[C@H](OC(C)=O)[C@@H]1C` [Compound 17k], in the data set with MTB H37Rv ATCC 27294, the “MIC90 MABA Rel to RMP” value amounted to 11 and the MIC stood at 0.3 µM (≈ 0.335 µg/mL). In the data set with DPX2 cells, the “DPX2 Viability @ 6.25 μM” value is 131% and the “DPX2 Viability @ 25 μM” value stood at 34%. The IC50 with VERO cells (ATCC CRL-81) was greater than 10 µM.
Consider `CO[C@H]1/C=C/O[C@@]2(C)Oc3c(C)c(O)c4c(=O)c(c5oc6cc(N7CCN(C(=O)c8ccncc8)CC7)cc(OCc7ccc(CN8CCOCC8)cc7)c6nc-5c4c3C2=O)NC(=O)/C(C)=C\C=C\[C@H](C)[C@H](O)[C@@H](C)[C@@H](O)[C@@H](C)[C@H](OC(C)=O)[C@@H]1C` [Compound 17n, 7S,9E,11S,12R,13S,14R,15R,16R,17S,18S,19E,21Z)-2,15,17-trihydroxy-11-methoxy-3,7,12,14,16,18,22-heptamethyl-32-{[4-(morpholin-4-ylmethyl)phenyl]methoxy}-6,23,37-trioxo-30-{4-[(pyridin-4-yl)carbonyl]piperazin-1-yl}-8,27,38-trioxa-24,34-diazahexacyclo[23.11.1.1^4,7.0^5,36.0^26,35.0^28,33]octatriaconta-1,3,5(36)9,19,21,25,28,30,32,34-undecaen-13-yl acetate], for which, in the data set on MTB H37Rv ATCC 27294, the “MIC90 MABA Rel to RMP” value was determined as 1.5 and the MIC90 was found to be 0.073 µM. Further, in the data set with DPX2 cells, the “DPX2 Viability @ 6.25 μM” value was 102% and the “DPX2 Viability @ 25 μM” value worked out at 98%. For the same compound, the IC50 in the data set with VERO cells (ATCC CRL-81) is greater than 10 µM.
The matching figures for `CCC(=O)N1CCN(c2cc(OCc3ccc(CN4CCOCC4)cc3)c3nc4c5c6c7c(C)c(O)c5c(=O)c(c-4oc3c2)NC(=O)/C(C)=C\C=C\[C@H](C)[C@H](O)[C@@H](C)[C@@H](O)[C@@H](C)[C@H](OC(C)=O)[C@H](C)[C@@H](OC)/C=C/O[C@@](C)(O7)C6=O)CC1` [Compound 17g, (7S,9E,11S,12R,13S,14R,15R,16R,17S,18S,19E,21Z)-2,15,17-Trihydroxy-11-methoxy-3,7,12,14,16,18,22-heptamethyl-32-({4-[(morpholin-4-yl)methyl]phenyl}methoxy)-6,23,37-trioxo-30-(4-propanoylpiperazin-1-yl)-8,27,38-trioxa-24,34-diazahexacyclo-[23.11.1.1^4,7.0^5,36.0^26,35.0^28,33]octatriaconta-1(36)2,4,9,19,21,25,28,30,32,34-undecaen-13-yl acetate]: 0.4, 0.012 µM, 117%, 56% and greater than 10 µM.
